# Source: paper PMC12654037, “Norditerpene Natural Products from Subterranean Fungi with Anti-Parasitic Activity” (Microorganisms, 2025)
# Tests used:
# HepG2 human hepatocytes = test: HepG2 cytotoxicity assay (MTS); format: cell-based; conditions: 48 h, mean +/- SD
# Procedure: HepG2 cytotoxicity assay: Mammalian cell cytotoxicity was assessed in HepG2 human hepatocytes using an MTS 3-(4,5-dimethylthiazol-2-yl)-5-(3-carboxymethoxyphenyl)-2-(4-sulfophenyl)-2H-tetrazolium)-based cytotoxicity assay. For cytotoxicity testing, ∼2250 cells were seeded into each well of a 384-well microtiter plate and incubated for 24 h. Serial dilutions of the compounds were added in triplicate starting at 25 μM. Cells were further incubated for an additional 48 h at 37 °C in an atmosphere containing 5% CO2. Zero-growth control wells were incubated with 5% Triton X-100 for 5 min prior to MTS addition. Following the addition of MTS to all wells, the plates were incubated for an additional 4 h under the same environmental conditions before taking absorbance measurements. Absorbance values were recorded at 490 nm using a Synergy Neo2 multimode reader (BioTek), and values were normalized based on Triton X-100-lysed and no treatment controls. Samples were run in triplicate in each assay, and the experiments were repeated three times.
# HuF fibroblast cell line = conditions: sub-confluent; ref Rusman et al. 2020 [25]; cited from earlier work
# P. falciparum line Dd2 = test: Plasmodium falciparum growth inhibition assay (SYBR Green I), Dd2; conditions: for EC50: Plasmodium falciparum, DD2, 72 h, read-out: EC50 Dd2 (M)
# Procedure: (§2) Plasmodium falciparum growth inhibition assay: Antiplasmodial EC50 results were determined using a fluorescence-based SYBR Green I assay performed using asynchronous cultures [30, 35]. […] Plates were subsequently frozen at −80 °C to facilitate lysis. […] Relative fluorescence units (RFUs) were normalized based on chloroquine-treated and no treatment controls. Serial dilutions of compounds were prepared in RPMI with final assay conditions of ≤0.2% DMSO. Each assay was conducted in triplicate with three biological replicates.
# P. falciparum 3D7 = test: Plasmodium falciparum growth inhibition assay (SYBR Green I), 3D7; conditions: 3D7, 72 h, read-out: EC50 3D7(M)
# Procedure: as §2
# C. parvum = C. parvum growth inhibition assay (Cp-NLuc-infected HCT-8 cells); format: cell-based, Cryptosporidium parvum; conditions: for parasite inhibition in pilot screen: CpNLuc-infected HCT-8 cells, initial dose 5 µg/mL; for EC50: Cryptosporidium parvum, HCT-8, intracellular nanoluciferase-expressing C. parvum in vitro, Figure 1 table, read-out: EC50 (μM), C. parvum
# Procedure: C. parvum growth inhibition assays: The in vitro growth inhibition assay of C. parvum has been previously described. Briefly, clear-bottom, white-sided 96 well plates were seeded with HCT-8 cells. Once the cells reached between 50% and 75% confluency, they were infected with Cp-NLuc oocysts (10,000/well) in complete media containing 0.6% taurocholate. At 24 h post-infection (hpi), the infected cells were treated with compounds at various concentrations. DMSO was used as a vehicle control in parallel. Parasite growth was determined at 72 hpi by measuring relative luminescence units (RLUs) using Promega Nano-Glo substrate (Promega, Madison, WI, USA) and a SpectraMax® L Microplate Reader (Molecular Devices, San Jose, CA, USA). The percent inhibition of parasite growth was calculated as [(RLUDMSO − RLUcompound)/RLUDMSO] × 100.
# HCT-8 cells = test: HCT-8 cytotoxicity assay; format: cell-based
# Procedure: (§1) HCT-8 and HFF cytotoxicity assays: Cytotoxicity of the compounds was determined against both confluent (the conditions of the infection assays) and growing HCT-8 and HFF host cells, as previously described. Cells were seeded into white-sided, clear-bottom 96-well plates and grown to either 40% or 100% confluency. Compounds were added to cells at various concentrations up to 100 µM in a final DMSO concentration of 0.5%. DMSO was run in parallel as a vehicle control. After 48 h, the viability of the cells was determined by either quantification of cellular ATP (Cell-Titer Glo cell viability assay; Promega, Madison WI, USA) or by MTT assay. Viability was determined 24 h after compound addition to HFF cells or 48 h after compound addition to HCT-8 cells or HepG2 cells. The percent cell growth was then calculated with the following formula: % Cell Growth = [RLUcompound/RLUDMSO] × 100. Samples were run in triplicate with two to three biological replicates.
# HFF cells = test: HFF cytotoxicity assay; format: cell-based; conditions: confluent
# Procedure: as §1
SMILES,TC50 HepG2 (HepG2 human hepatocytes),TC50 HuF (sub-confluent) (HuF fibroblast cell line),EC50 (P. falciparum line Dd2),EC50 (P. falciparum 3D7),parasite inhibition in pilot screen (C. parvum),EC50 (C. parvum),TC50 HCT-8 (confluent) (HCT-8 cells),TC50 HCT-8 (sub-confluent) (HCT-8 cells),TC50 HFF (confluent) (HFF cells),SI: selectivity index=EC50 HepG2/ EC50 compound (P. falciparum line Dd2)
"C[C@]12C(=O)O[C@@H]3C=C4C(=CC(=O)O[C@@H]4O)[C@@](C)(CC[C@H]1O)[C@@H]32 [compound 9, oidiolactone K]",> 25 µM,> 30 µM,> 5e-06 M,> 5e-06 M,,,,,,
"C[C@]12C(=O)O[C@@H]3[C@H]4O[C@@]45C(=CC(=O)O[C@H]5O)[C@@](C)(CC[C@H]1O)[C@@H]32 [compound 4, oidiolactone G]",> 25 µM,> 30 µM,> 5e-06 M,> 5e-06 M,eliminates activity,,,,,
"C[C@@]12CCC[C@]3(C)C4=CC(=O)O[C@@H](O)[C@]45O[C@@H]5[C@@H](OC1=O)[C@@H]23 [compound 3, oidiolactone D]",> 25 µM,> 30 µM,> 5e-06 M,> 5e-06 M,,,,,,
"CO[C@H]1OC(=O)C=C2C1=C[C@H]1OC(=O)[C@@]3(C)[C@H](O)CC[C@@]2(C)[C@@H]13 [compound 8, oidiolactone J]",> 25 µM,> 30 µM,> 5e-06 M,> 5e-06 M,,7.8 µM,> 30 µM,> 30 µM,> 30 µM,
"COC(=O)/C=C1/[C@]2(C(OC)OC)O[C@@H]2[C@H]2OC(=O)[C@@]3(C)CCC[C@@]1(C)[C@@H]23 [compound 5, oidiolactone H]",,> 30 µM,,,abolishes inhibitory activity,,,,,
"C[C@@]12CCC[C@]3(C)c4cc(=O)occ4[C@H](O)[C@@H](OC1=O)[C@@H]23 [compound 12, oidiolactone L]",> 25 µM,> 30 µM,> 5e-06 M,> 5e-06 M,inactive,,,,,
"C[C@]12CCC[C@](C)(C(=O)O)[C@@H]1C=C[C@]1(O)COC(=O)C[C@H]21 [compound 13, oidiolactone E]",> 25 µM,,> 5e-06 M,> 5e-06 M,,,,,,
"C[C@@]12CCC[C@]3(C)C4=CC(=O)O[C@H](O)C4=C[C@@H](OC1=O)[C@@H]23 [compound 10, yukonin]",,,,,,1.09 µM,> 30 µM,2.5 ± 0.3 µM,> 30 µM,
"COC(=O)/C=C1/[C@]2(C=O)O[C@@H]2[C@H]2OC(=O)[C@@]3(C)CCC[C@@]1(C)[C@@H]23 [compound 6, oidiolactone I]",> 25 µM,> 30 µM,> 4.99e-06 M,3.65e-06 ± 5.96e-07 M,,7.8 µM,> 30 µM,4.8 ± 0.7 µM,> 30 µM,
"C[C@@]12CCC[C@]3(C)C4=CC(=O)OC[C@]45O[C@@H]5[C@@H](OC1=O)[C@@H]23 [compound 2, oidiolactone C]",17.1 ± 0.821 µM,> 30 µM,2.49e-06 ± 1.98e-07 M,2.78e-06 ± 3.97e-07 M,,1.8 µM,> 30 µM,1.35 ± 0.2 µM,> 30 µM,7
"C[C@]1(C(=O)O)CCC[C@]2(C)C3=CC(=O)OCC3=CC[C@@H]12 [compound 11, oidiodendronic acid]",> 25 µM,> 30 µM,> 5e-06 M,> 5e-06 M,,9.1 µM,> 30 µM,19.7 ± 4.8 µM,> 30 µM,
"C=C1C(O)C[C@@H]2[C@](C)(CCC[C@]2(C)C(=O)O)[C@H]1CC(=O)O (stereo partly drawn) [compound 14, LL-Z1271β]",> 25 µM,> 30 µM,> 5e-06 M,> 5e-06 M,,,,,,
